Data: patent publication US20160106711A1, “3-3-Di-Substituted-Oxindoles as Inhibitors of Translation Initiation” (President and Fellows of Harvard College, priority 2012, published 2016)

System: KLN
Test: Cell growth assay (sulforhodamine B), KLN cells
Assay type: cell-based, mouse
Conditions: Mus musculus, 120 h, 5 days, SRB
Procedure: […] Plates were then incubated with 0.4% SRB in 1% acetic acid for 1 h, washed with 1% acetic acid to remove the unbound dye, and air-dried. The bound dye was solubilized by addition of 10 mM Tris (pH 10), and the absorbance was determined in a Titertek Multiscan plate reader at 490 nm. The data calculations were carried out as described (the values for mean±SD of data from replicate wells are calculated): data are expressed in terms of % T/C [(OD of treated cells/OD of control cells)×100], as a measure of cell viability and survival in the presence of test materials. Calculations are also made for the concentration of test agents giving a T/C value of 50%, or 50% growth inhibition (IC50). With the SRB assay, a measure is made of the cell population density at time 0 (the time at which drugs are added) from two extra reference plates of inoculated cells fixed with TCA just prior to drug addition to the test plates. Thus, we have three measurements: control optical density (C), test optical density (T), and optical density at time zero (T0). The calculation is 100×[(T−T0)/(C−T0)]. If T is less than T0, cell killing has occurred and can be calculated from 100×[(T−T0)/T0]. Thus, for each drug-cell line combination, a dose-response curve is generated and three levels of effect are calculated.

Structure (SMILES)	IC50 [µM]
CN(C)CCN1C(=O)C(c2cc(C(C)(C)C)ccc2O)(c2cc(C(C)(C)C)ccc2O)c2ccccc21 [HY087]	> 20
CC(C)(C)c1ccc(O)c(C2(c3cc(C(C)(C)C)ccc3OCCN3CCCC3)C(=O)Nc3ccccc32)c1 (centres unmarked) [HY091]	1.4 ± 0.4
CN(C)CCOc1ccc(C(C)(C)C)cc1C1(c2cc(C(C)(C)C)ccc2OCCN(C)C)C(=O)N(CCN(C)C)c2ccccc21 [HY092]	0.2 ± 0.03
CC(C)(C)c1ccc(O)c(C2(c3cc(C(C)(C)C)ccc3OCCN3CCCC3)C(=O)N(CCN3CCCC3)c3ccccc32)c1 (centres unmarked) [HY093]	4.1 ± 0.8
CCCN1C(=O)C(c2cc(C(C)(C)C)ccc2O)(c2cc(C(C)(C)C)ccc2OCCN2CCCC2)c2ccccc21 (centres unmarked) [HY098]	0.5 ± 0.2
COc1ccc(C(C)C)cc1C1(c2cc(C(C)C)ccc2O)C(=O)Nc2ccccc21 (centres unmarked) [HY161]	> 20
CC(C)(C)c1ccc(OCCO)c(C2(c3cc(C(C)(C)C)ccc3OCCO)C(=O)Nc3ccccc32)c1 [HY169]	11 ± 2.4
CC(C)(C)c1ccc(OCCN2CCCCC2)c(C2(c3cc(C(C)(C)C)ccc3OCCN3CCCCC3)C(=O)Nc3ccccc32)c1 [HY172]	1.3 ± 0.3
CN(C)CCOc1ccc(C(C)(C)C)cc1C1(c2cc(C(C)(C)C)ccc2OCCN(C)C)C(=O)Nc2ccccc21 [HY177]	> 20
CC(=O)OCCOc1ccc(C(C)(C)C)cc1C1(c2cc(C(C)(C)C)ccc2OCCOC(C)=O)C(=O)Nc2ccccc21 [HY184]	> 20
CC(C)(C)c1ccc(OCCN2CCCC2)c(C2(c3cc(C(C)(C)C)ccc3OCCN3CCCC3)C(=O)N(CCN3CCCC3)c3ccccc32)c1 [HY193]	2.11 ± 1.1

System: CRL-2813
Test: Cell growth assay (sulforhodamine B), CRL-2813 cells
Assay type: cell-based, human
Conditions: Homo sapiens, CRL2813, 120 h, 5 days, SRB
Procedure: (§1) Adherent mouse (KLN) and human solid tumor cells (CRL-2351, and CRL-2813) were plated in 96-well plates and maintained for 5 days in the presence of 0.54 to 6 μM of individual compound, and cell proliferation was measured by the sulforhodamine B (SRB) assay as described in ref. 11: briefly, cells were fixed in 10% cold trichloroacetic acid at 4° C. for 1 h, extensively washed with double-distilled H2O and air-dried. Plates were then incubated with 0.4% SRB in 1% acetic acid for 1 h, washed with 1% acetic acid to remove the unbound dye, and air-dried. The bound dye was solubilized by addition of 10 mM Tris (pH 10), and the absorbance was determined in a Titertek Multiscan plate reader at 490 nm. The data calculations were carried out as described (the values for mean±SD of data from replicate wells are calculated): data are expressed in terms of % T/C [(OD of treated cells/OD of control cells)×100], as a measure of cell viability and survival in the presence of test materials. Calculations are also made for the concentration of test agents giving a T/C value of 50%, or 50% growth inhibition (IC50). With the SRB assay, a measure is made of the cell population density at time 0 (the time at which drugs are added) from two extra reference plates of inoculated cells fixed with TCA just prior to drug addition to the test plates. Thus, we have three measurements: control optical density (C), test optical density (T), and optical density at time zero (T0). The calculation is 100×[(T−T0)/(C−T0)]. If T is less than T0, cell killing has occurred and can be calculated from 100×[(T−T0)/T0]. Thus, for each drug-cell line combination, a dose-response curve is generated and three levels of effect are calculated.

Structure (SMILES)	IC50 [µM]
CN(C)CCN1C(=O)C(c2cc(C(C)(C)C)ccc2O)(c2cc(C(C)(C)C)ccc2O)c2ccccc21 [HY087]	> 20
CC(C)(C)c1ccc(O)c(C2(c3cc(C(C)(C)C)ccc3OCCN3CCCC3)C(=O)Nc3ccccc32)c1 (centres unmarked) [HY091]	10.7 ± 0.8
CN(C)CCOc1ccc(C(C)(C)C)cc1C1(c2cc(C(C)(C)C)ccc2OCCN(C)C)C(=O)N(CCN(C)C)c2ccccc21 [HY092]	0.9 ± 0.01
CC(C)(C)c1ccc(O)c(C2(c3cc(C(C)(C)C)ccc3OCCN3CCCC3)C(=O)N(CCN3CCCC3)c3ccccc32)c1 (centres unmarked) [HY093]	7.25 ± 1.6
CCCN1C(=O)C(c2cc(C(C)(C)C)ccc2O)(c2cc(C(C)(C)C)ccc2OCCN2CCCC2)c2ccccc21 (centres unmarked) [HY098]	0.9 ± 0.2
COc1ccc(C(C)C)cc1C1(c2cc(C(C)C)ccc2O)C(=O)Nc2ccccc21 (centres unmarked) [HY161]	1.4 ± 0.09
CC(C)(C)c1ccc(OCCO)c(C2(c3cc(C(C)(C)C)ccc3OCCO)C(=O)Nc3ccccc32)c1 [HY169]	2.9 ± 0.1
CC(C)(C)c1ccc(OCCN2CCCCC2)c(C2(c3cc(C(C)(C)C)ccc3OCCN3CCCCC3)C(=O)Nc3ccccc32)c1 [HY172]	11.6 ± 1.4
CN(C)CCOc1ccc(C(C)(C)C)cc1C1(c2cc(C(C)(C)C)ccc2OCCN(C)C)C(=O)Nc2ccccc21 [HY177]	12.5 ± 1
CC(=O)OCCOc1ccc(C(C)(C)C)cc1C1(c2cc(C(C)(C)C)ccc2OCCOC(C)=O)C(=O)Nc2ccccc21 [HY184]	2
CC(C)(C)c1ccc(OCCN2CCCC2)c(C2(c3cc(C(C)(C)C)ccc3OCCN3CCCC3)C(=O)N(CCN3CCCC3)c3ccccc32)c1 [HY193]	1.47 ± 1

System: CRL-2351
Test: Cell growth assay (sulforhodamine B), CRL-2351 cells
Assay type: cell-based, human
Conditions: Homo sapiens, 120 h, 5 days, SRB
Procedure: as §1

Structure (SMILES)	IC50 [µM]
CN(C)CCN1C(=O)C(c2cc(C(C)(C)C)ccc2O)(c2cc(C(C)(C)C)ccc2O)c2ccccc21 [HY087]	2.7 ± 0.2
CC(C)(C)c1ccc(O)c(C2(c3cc(C(C)(C)C)ccc3OCCN3CCCC3)C(=O)Nc3ccccc32)c1 (centres unmarked) [HY091]	1
CN(C)CCOc1ccc(C(C)(C)C)cc1C1(c2cc(C(C)(C)C)ccc2OCCN(C)C)C(=O)N(CCN(C)C)c2ccccc21 [HY092]	0.34 ± 0.18
CC(C)(C)c1ccc(O)c(C2(c3cc(C(C)(C)C)ccc3OCCN3CCCC3)C(=O)N(CCN3CCCC3)c3ccccc32)c1 (centres unmarked) [HY093]	3.6 ± 0.7
CCCN1C(=O)C(c2cc(C(C)(C)C)ccc2O)(c2cc(C(C)(C)C)ccc2OCCN2CCCC2)c2ccccc21 (centres unmarked) [HY098]	0.3 ± 0.1
COc1ccc(C(C)C)cc1C1(c2cc(C(C)C)ccc2O)C(=O)Nc2ccccc21 (centres unmarked) [HY161]	7.2 ± 3
CC(C)(C)c1ccc(OCCO)c(C2(c3cc(C(C)(C)C)ccc3OCCO)C(=O)Nc3ccccc32)c1 [HY169]	2.7 ± 0.3
CC(C)(C)c1ccc(OCCN2CCCCC2)c(C2(c3cc(C(C)(C)C)ccc3OCCN3CCCCC3)C(=O)Nc3ccccc32)c1 [HY172]	2.14 ± 1.28
CN(C)CCOc1ccc(C(C)(C)C)cc1C1(c2cc(C(C)(C)C)ccc2OCCN(C)C)C(=O)Nc2ccccc21 [HY177]	11.5 ± 1.5
CC(=O)OCCOc1ccc(C(C)(C)C)cc1C1(c2cc(C(C)(C)C)ccc2OCCOC(C)=O)C(=O)Nc2ccccc21 [HY184]	2
CC(C)(C)c1ccc(OCCN2CCCC2)c(C2(c3cc(C(C)(C)C)ccc3OCCN3CCCC3)C(=O)N(CCN3CCCC3)c3ccccc32)c1 [HY193]	0.55 ± 0.17

System: eIF2•GTP•Met-tRNAi ternary complex
Test: Ternary complex assay (ATF-4 assay), dual luciferase firefly/renilla ratio
Assay type: cell-based, mouse
Conditions: Mus musculus, 2.5 uM, read-out: ATF-4 Xmax
Excerpt: For assay development, a bi-directional plasmid was designed in which a common promoter/enhancer complex drives the transcription of firefly luciferase (F-luc) ORF fused to the 5′ untranslated region (UTR) of ATF-4, and of the renilla luciferase (R-luc) ORF fused to a 90-nucleotide 5′ UTR derived from the plasmid (FIG. 6A). Because the tetracycline-regulated transactivator ((tTA), required for driving transcription from this vector) is not normally expressed in the mammalian cells, stable KLN cancer cells were constructed that expressed tTA (KLN-tTA).
The KLN-tTA colonies that drove expression of reporter genes from pBISA-DL plasmid were selected by transient transfection and dual luciferase assay. One of these KLN-tTA cell lines was transfected with the pBISA-DL^(ATF-4) expression vector, stable colonies were selected by dual luciferase assay and expanded.
Plasmids and Ternary Complex Assay
(ATF-4 Assay). Briefly, bi-directional mammalian expression vector pBI (Clontech, CA) was modified to expand the multiple cloning sites (MCSs) and designated thereafter as pBISA. This vector contains seven copies of the tetracycline-regulated transactivator response element (TRE), which together act as core promoter/enhancer. The TRE is flanked on both sides by minimal human cytomegalovirus (CMV) minimal promoters allowing bi-directional transcription and two MCSs. Firefly and renilla luciferases were subcloned into MCS-I and MCS-II, respectively. This plasmid, designated pBISA-DL, transcribes two mRNAs that contain the 90 nucleotide plasmid derived 5′UTR (same sequence in both mRNAs), and the ORF encoding either firefly or renilla luciferase followed by a polyadenylation sequence as described in Ziegeler, G.; Ming, J.; Koseki, J. C.; Sevinc, S.; Chen, T.; Ergun, S.; Qin, X.; Aktas, B. H. J. Biol. Chem. 2010, 285, 15408 hereby incorporated by reference. This plasmid was further modified by inserting the 5′UTR of ATF-4 into MCS-I in front of the firefly luciferase mRNA. Transcription from this direction generates an mRNA that contains the firefly luciferase ORF preceded by a 5′UTR composed of 90 nucleotides derived from the plasmid and 267 nucleotides derived from the 5′UTR of ATF-4 mRNA. Transcription from the other direction generates an mRNA that contains the renilla luciferase ORF proceeded only by the 90-nucleotide plasmid-derived sequence in the 5′UTR. This expression plasmid is called pBISA-DL(ATF-4). In the dual luciferase assay, cells expressing firefly and renilla luciferases were lysed and the extracts assayed with a Dual-Glo Luciferase assay kit, per manufacturer's instruction (Promega Inc., Madison, Wis.). The data calculations were carried out as the ratio of firefly to renilla luciferase signal as described in Chen, T.; Ozel, D.; Qiao, Y.; Harbinski, F.; Chen, L.; Denoyelle, S.; He, X.; Zvereva, N.; Supko, J. G.; Chorev, M.; Halperin, J. A.; Aktas, B. H. Nat. Chem. Biol. 2011, 7, 610 hereby incorporated by reference.

Structure (SMILES)	maximal fold induction at 2.5 µM
CN(C)CCOc1ccc(C(C)(C)C)cc1C1(c2cc(C(C)(C)C)ccc2OCCN(C)C)C(=O)N(CCN(C)C)c2ccccc21 [HY092]	16.8 ± 2.18
CC(C)(C)c1ccc(OCCN2CCCC2)c(C2(c3cc(C(C)(C)C)ccc3OCCN3CCCC3)C(=O)N(CCN3CCCC3)c3ccccc32)c1 [HY193]	12.1 ± 1.8

Same assay, conditions: Mus musculus, 10 uM, read-out: ATF-4 Xmax

Structure (SMILES)	maximal fold induction at 10 µM
CC(C)(C)c1ccc(O)c(C2(c3cc(C(C)(C)C)ccc3OCCN3CCCC3)C(=O)Nc3ccccc32)c1 (centres unmarked) [HY091]	2.73 ± 0.65
CCCN1C(=O)C(c2cc(C(C)(C)C)ccc2O)(c2cc(C(C)(C)C)ccc2OCCN2CCCC2)c2ccccc21 (centres unmarked) [HY098]	8.7 ± 1.2

Same assay, conditions: Mus musculus, 20 uM, read-out: ATF-4 Xmax

Structure (SMILES)	maximal fold induction at 20 µM
CN(C)CCN1C(=O)C(c2cc(C(C)(C)C)ccc2O)(c2cc(C(C)(C)C)ccc2O)c2ccccc21 [HY087]	7.12 ± 1.3
CC(C)(C)c1ccc(O)c(C2(c3cc(C(C)(C)C)ccc3OCCN3CCCC3)C(=O)Nc3ccccc32)c1 (centres unmarked) [HY091]	5.3 ± 0.7
CC(C)(C)c1ccc(O)c(C2(c3cc(C(C)(C)C)ccc3OCCN3CCCC3)C(=O)N(CCN3CCCC3)c3ccccc32)c1 (centres unmarked) [HY093]	2.21 ± 0.75
CC(C)(C)c1ccc(OCCO)c(C2(c3cc(C(C)(C)C)ccc3OCCO)C(=O)Nc3ccccc32)c1 [HY169]	3.4 ± 0.1

Same assay, conditions: Mus musculus, 80 uM, read-out: ATF-4 Xmax

Structure (SMILES)	maximal fold induction at 80 µM
CC(C)(C)c1ccc(OCCN2CCCCC2)c(C2(c3cc(C(C)(C)C)ccc3OCCN3CCCCC3)C(=O)Nc3ccccc32)c1 [HY172]	5.91 ± 0.52
CC(=O)OCCOc1ccc(C(C)(C)C)cc1C1(c2cc(C(C)(C)C)ccc2OCCOC(C)=O)C(=O)Nc2ccccc21 [HY184]	2.07 ± 1.6

Same assay, conditions: Mus musculus, at 40 uM, read-out: ATF-4 Xmax @ 40 μM

Structure (SMILES)	maximal fold induction at 40 µM
CC(C)(C)c1ccc(O)c(C2(c3cc(C(C)(C)C)ccc3OCCN3CCCC3)C(=O)N(CCN3CCCC3)c3ccccc32)c1 (centres unmarked) [HY093]	9 ± 1.7
COc1ccc(C(C)C)cc1C1(c2cc(C(C)C)ccc2O)C(=O)Nc2ccccc21 (centres unmarked) [HY161]	3.91 ± 0.65
CN(C)CCOc1ccc(C(C)(C)C)cc1C1(c2cc(C(C)(C)C)ccc2OCCN(C)C)C(=O)Nc2ccccc21 [HY177]	1.34 ± 0.38
CC(C)(C)c1ccc(OCCN2CCCC2)c(C2(c3cc(C(C)(C)C)ccc3OCCN3CCCC3)C(=O)N(CCN3CCCC3)c3ccccc32)c1 [HY193]	9.09
